We go through three compounds from patent EP0219616A1, “N,N'-dimethyl-N,N'-4,10-dioxa-3,11-dioxo-1,13-tridecylene-bis-tetrahydropapaverinium dichloride” (S O "PHARMACHIM", priority 1985, dated 1987).

Where two headings read alike, the source gives them in different places.

The conditions of series [1]: pH 2,5; literature reference (4); cited from earlier work.
Series [2] can be described thus: Comparative stability in aqueous acidic medium, content by HPLC. Type of series: physicochemical. Here is the method:
[…] Die Prüfung wurde bei unterschiedlichen pH-Werten in dem angegebenen Intervall durch Behandlung der wässrigen Lösungen des Dichlormethylats der Formel I und des Bezylats bei einer Temperatur von 53°C während 40 Stunden durchgeführt.
Chromatografische Bedingungen: Säule mit umgekehrter Phase C18, bewegliche Phase: wässrige 0,1 M Kaliumhydrogenphosphat, enthaltend Natriumoktylhydrogensulfat (1 g/I) und Azetonitril in einem Verhältnis 1:1. Durchlaßgeschwindigkeit 1,5 ml/Min.
Es werden je 7 Proben einer 0,5%-igen wässrigen Lösung des Dichlorids I und des Dibezylats mit bestimmten pH-Werten zubereitet, was durch Zufügen von Ortophospharsäure ereicht wird. Die Proben verweilen 40 Stunden bei einer Temperatur von 53°C. Danach wird der Prozentgehalt an Dichlorid und Dibezylat in den Proben gemessen.

Series [3] can be described thus: Solubility compared with known salts (no method given). The format is physicochemical.
A further series deals with Neuromuskel-Übertragung. Kind of series: Sciatic nerve-gastrocnemius preparation in cats: muscle contraction on nerve stimulation (neuromuscular block). The format is in vivo, Katzen. To be noted: for Eintreten der Neuro-muskel-Blockierung / Wiederherstellung der Neuromuskel-Übertragung: dose 0,2 mg/kg. From the text: Die Versuche wurden an Katzen unter Einführen von gleichen Dosen des Originalpräparats "Tracrium" und der Verbindung der Formel I. Es wurde das klassische Verfahren "I-schiadiensgastrocnemicus" benutzt. Es wurde eine Kontraktion des Muskels Gastrocnemicus zufolge einer Reizung des Hüftnervs (Ischiasnervs) registriert. Die Ergebnisse sind in Tabelle II dargestellt.

`COc1ccc(CC2c3cc(OC)c(OC)cc3CC[N+]2(C)CCC(=O)OCCCCCOC(=O)CC[N+]2(C)CCc3cc(OC)c(OC)cc3C2Cc2ccc(OC)c(OC)c2)cc1OC` (stereo not shown) [Dibezylat, Dibesylat des N,N-4,10-Dioxa-3,11-Dioxotridezylen-1,13-bis-tetrahydropapaverins, reference compound]: the “Prozentgehalt des Bezylats bei maximaler Stabilität” value in series [1] is 76%. The remaining at 40 h in series [2] (acidic aqueous solution, pH 3, at pH 3,50, 53°C, read-out: Prozentgehalt, Maximum) was determined as 73.8%; in series [2] (aqueous solution, phosphoric acid, pH 1, pH 1,76, 0,5% aqueous solution, 53°C, read-out: Prozent-gehalt), 60.6%; in series [2] (aqueous solution, phosphoric acid, pH 2, pH 2,88, 0,5% aqueous solution, 53°C, read-out: Prozent-gehalt), 72.9%; in series [2] (aqueous solution, phosphoric acid, pH 3, pH 3,16, 0,5% aqueous solution, 53°C, read-out: Prozent-gehalt), 73.5%; in series [2] (aqueous solution, phosphoric acid, pH 3, pH 3,50, 0,5% aqueous solution, 53°C, read-out: Prozent-gehalt), 73.8%; in series [2] (aqueous solution, phosphoric acid, pH 3, pH 3,71, 0,5% aqueous solution, 53°C, read-out: Prozent-gehalt) it was 72.2%. For the same compound, the remaining at 40 h in series [2] (aqueous solution, phosphoric acid, pH 4, pH 4,09, 0,5% aqueous solution, 53°C, read-out: Prozent-gehalt) came out at 68.8%. The “Prozentgehalt niedriger im Vergleich zur Verbindung der Formel I” value in series [2] (pH interval 2,46 bis 3,77, 53°C, 40 h) is given as approximately 20%.

For `COc1ccc(CC2c3cc(OC)c(OC)cc3CC[N+]2(C)CCC(=O)OCCCCCOC(=O)CC[N+]2(C)CCc3cc(OC)c(OC)cc3C2Cc2ccc(OC)c(OC)c2)cc1OC` (stereo not shown) [Dichlormethylat der Formel I, N,N-Dimethyl-N,N-4,10-dioxa-3,11-dioxotridezylen-1,13-tetrachydropapaverinoil-dichlorid], in series [3], the “Löslichkeit im Vergleich zu dem bekannten Dijodid und den anderen Salzen derselben Gruppe” value is “bessere Löslichkeit”. In the series on Neuromuskel-Übertragung (cats), the “Eintreten der Neuro-muskel-Blockierung” value is 60,3 Sek. Also, the “Wiederherstellung der Neuromuskel-Übertragung” value in the series with Neuromuskel-Übertragung (cats) is given as 29,8 Min. Moreover, the “Eintreten, Wiederherstellung und Dauer des Effekts der Neuromuskelübertragung im Vergleich zu "Tracrium"” value with Neuromuskel-Übertragung (cats, equal doses) is listed as “keinen statistisch wesentlichen Unterschied”. Also, the “biologischer Effekt bei den pharmakologischen Prüfungen” value with Neuromuskel-Übertragung (same effect with smaller quantity of active substance) is given as “verbesserten biologischen Effekt”. Besides, the remaining at 40 h was 91.9% in series [2] (acidic aqueous solution, pH 3, at pH 3,0 -3,27, 53°C, read-out: Prozentgehalt, Maximum); 86 to 91.9% in series [2] (acidic aqueous solution, pH interval 2,46 bis 3,77, 53°C, read-out: Prozentgehalt); 88.1% in series [2] (aqueous solution, phosphoric acid, pH 2, pH 2,46, 0,5% aqueous solution, 53°C, read-out: Prozent-gehalt); 89.5% in series [2] (aqueous solution, phosphoric acid, pH 2, pH 2,75, 0,5% aqueous solution, 53°C, read-out: Prozent-gehalt); 91.9% in series [2] (aqueous solution, phosphoric acid, pH 3, pH 3,04, 0,5% aqueous solution, 53°C, read-out: Prozent-gehalt); 91.4% in series [2] (aqueous solution, phosphoric acid, pH 3, pH 3,27, 0,5% aqueous solution, 53°C, read-out: Prozent-gehalt). Further, in series [2] (aqueous solution, phosphoric acid, pH 3, pH 3,58, 0,5% aqueous solution, 53°C, read-out: Prozent-gehalt), the remaining at 40 h is 87.6%. For the same compound, the “Stabilität im Vergleich zum Bezylat” value in series [2] (aqueous acidic medium, pH 1,7 bis 4,0, 53°C, 40 h) is listed as “wesentlich stabiler”. Further, the Prozent-gehalt in series [2] (pH 4,09, 0,5% aqueous solution, 53°C, 40 h, listed as Dichlor-methyl der Formel I, 2400 min) was 70,4%.

With `COc1ccc(CC2c3cc(OC)c(OC)cc3CC[N+]2(C)CCC(=O)OCCCCCOC(=O)CC[N+]2(C)CCc3cc(OC)c(OC)cc3C2Cc2ccc(OC)c(OC)c2)cc1OC` (stereo not shown) [Tracrium, Dibesylat des N,N-4,10-Dioxa-3,11-Dioxotridezylen-1,13-bis-tetrahydropapaverins, reference compound], in the series on Neuromuskel-Übertragung (cats), the “Eintreten der Neuro-muskel-Blockierung” value is 60,4 Sek and the “Wiederherstellung der Neuromuskel-Übertragung” value was 34,6 Min.
